Structures can show the parent of a compound that is named as a salt.
Key:
adrenergic receptor α1B = biological target: T1, adrenergic receptor α1B (Rattus norvegicus, UniProt P15823); test: Radioligand binding to adrenergic receptor α1B ([3H] Prazosin, rat liver membranes); details: for α-Adrenoceptor, % inhibition α1B: 10 µM ligand
T1 construct: membrane species from rat liver (rat of Wistar breed) are prepared; from tissue; host or cells: rat (Wistar) liver
T1 sequence (P15823 1-515): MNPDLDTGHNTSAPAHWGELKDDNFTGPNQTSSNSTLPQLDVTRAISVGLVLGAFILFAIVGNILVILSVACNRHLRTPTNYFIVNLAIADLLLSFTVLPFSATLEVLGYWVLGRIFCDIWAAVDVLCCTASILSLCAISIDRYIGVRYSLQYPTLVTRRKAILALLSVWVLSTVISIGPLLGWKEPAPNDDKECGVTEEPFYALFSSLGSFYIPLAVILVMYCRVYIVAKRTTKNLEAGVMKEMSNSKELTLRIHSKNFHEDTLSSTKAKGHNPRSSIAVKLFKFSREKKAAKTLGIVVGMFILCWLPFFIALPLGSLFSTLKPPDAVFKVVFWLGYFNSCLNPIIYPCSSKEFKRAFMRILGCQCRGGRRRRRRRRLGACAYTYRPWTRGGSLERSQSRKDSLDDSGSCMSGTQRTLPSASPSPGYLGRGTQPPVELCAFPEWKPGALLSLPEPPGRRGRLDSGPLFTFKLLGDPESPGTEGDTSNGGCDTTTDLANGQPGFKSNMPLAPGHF
Excerpt: Species heterogeneity of hepatic α1A-, α1B-, and α1C-subtypes. Biochem Biophys Res Commun. […] Prazosin is used as positive control.

adrenergic receptor α1A = biological target: T2, adrenergic receptor α1A (Rattus norvegicus, UniProt P43140); test: Radioligand binding to adrenergic receptor α1A ([3H] Prazosin, rat submaxillary gland membranes); details: for α-Adrenoceptor, % inhibition α1A: 10 µM ligand
T2 construct: membrane species from rat submaxillary glands (rat of Wistar breed) are prepared; from tissue; host or cells: rat (Wistar) submaxillary gland
T2 sequence (P43140 1-466): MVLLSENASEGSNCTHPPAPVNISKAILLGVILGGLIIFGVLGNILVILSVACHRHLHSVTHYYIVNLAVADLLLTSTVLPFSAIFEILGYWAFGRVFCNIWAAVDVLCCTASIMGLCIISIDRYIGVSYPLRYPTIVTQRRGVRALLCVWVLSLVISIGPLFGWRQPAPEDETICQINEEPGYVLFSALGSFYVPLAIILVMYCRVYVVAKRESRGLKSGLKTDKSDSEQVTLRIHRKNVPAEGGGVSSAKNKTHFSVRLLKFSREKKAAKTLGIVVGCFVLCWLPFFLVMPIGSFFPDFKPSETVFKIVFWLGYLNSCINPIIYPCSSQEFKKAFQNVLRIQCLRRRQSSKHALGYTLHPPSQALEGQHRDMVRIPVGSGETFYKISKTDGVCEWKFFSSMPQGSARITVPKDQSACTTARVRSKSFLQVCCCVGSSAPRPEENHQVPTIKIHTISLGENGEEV
Protocol: Determination of investigated compounds' binding to α1A receptor was carried out according to the method described in [Michel AD, Loury DN and Whiting R1. Identification of a single α1A-adrenoceptor corresponding to the α1A-subtype in rat submaxillary gland. […] Prazosin is used as positive control.

[1] = biological target: T3, recombinant human 5-HT2C receptor (Homo sapiens, UniProt P28335); test: Radioligand binding to serotonin receptor 5-HT2C ([3H] Mesulergine, CHO-K1 membranes); details: read-out: 5-HT2C % inhibition
T3 construct: expressed in transfected cells; host or cells: CHO-K1
T3 sequence (P28335 33-458): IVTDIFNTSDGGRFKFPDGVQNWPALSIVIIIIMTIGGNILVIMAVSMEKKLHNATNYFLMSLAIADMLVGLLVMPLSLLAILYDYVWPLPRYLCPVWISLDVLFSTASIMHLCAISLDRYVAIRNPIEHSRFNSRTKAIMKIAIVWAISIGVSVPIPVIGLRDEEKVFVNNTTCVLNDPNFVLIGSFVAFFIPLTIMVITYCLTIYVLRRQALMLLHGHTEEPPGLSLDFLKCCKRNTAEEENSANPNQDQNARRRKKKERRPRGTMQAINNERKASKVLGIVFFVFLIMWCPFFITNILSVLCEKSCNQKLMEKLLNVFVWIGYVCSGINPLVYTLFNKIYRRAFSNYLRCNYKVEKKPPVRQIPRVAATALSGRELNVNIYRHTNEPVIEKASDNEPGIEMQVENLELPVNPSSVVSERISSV
Excerpt: J Neurochem. 69: 1449 - 1458, 1997]. […] SB242084 is used as positive control.

human α1D receptor = biological target: T4, human α1D receptor (Homo sapiens, UniProt P25100); test: Radioligand binding to adrenergic receptor α1D ([3H] Prazosin, HEK-293 membranes); details: for inhibition at 10 µM: read-out: α-Adrenoceptor, % inhibition α1D; for α-Adrenoceptor, % inhibition α1D: 10 µM ligand
T4 construct: expressed in transfected cells; host or cells: HEK-293
T4 sequence (P25100 1-572): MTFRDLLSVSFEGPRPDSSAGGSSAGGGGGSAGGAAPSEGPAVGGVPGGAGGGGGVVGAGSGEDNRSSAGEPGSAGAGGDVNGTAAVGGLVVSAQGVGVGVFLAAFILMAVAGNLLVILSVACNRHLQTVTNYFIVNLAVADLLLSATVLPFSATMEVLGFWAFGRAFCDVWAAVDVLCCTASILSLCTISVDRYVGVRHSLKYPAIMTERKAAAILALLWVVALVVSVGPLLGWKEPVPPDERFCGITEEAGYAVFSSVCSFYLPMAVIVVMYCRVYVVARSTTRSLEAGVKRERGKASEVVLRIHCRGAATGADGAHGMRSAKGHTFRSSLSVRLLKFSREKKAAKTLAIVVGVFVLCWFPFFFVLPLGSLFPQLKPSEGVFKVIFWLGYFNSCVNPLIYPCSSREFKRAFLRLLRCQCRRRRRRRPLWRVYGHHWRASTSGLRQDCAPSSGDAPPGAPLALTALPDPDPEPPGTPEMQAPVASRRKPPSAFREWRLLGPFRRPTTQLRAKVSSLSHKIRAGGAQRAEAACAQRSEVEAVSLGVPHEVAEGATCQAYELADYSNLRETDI
Excerpt: 6-C. […] For this purpose sDNA of human α1D receptor is expressed in HEK-293 cells, as it was described in [TL Theroux, TA Esbenshade, RD Peavy and KP Minneman. Coupling efficiencies of human alpha 1-adrenergic receptor subtypes: titration of receptor density and responsiveness with inducible and repressible expression vectors. Mol Pharmacol.; 50: 1376-1387, 1996]. […] Characterization of an α1D-adrenoceptor mediating the contractile response of rat aorta to noradrenaline. […] Prazosin is used as positive control.

[2] = biological target: T5, recombinant human 5-HT6 receptor (Homo sapiens, UniProt P50406); test: Radioligand binding to serotonin receptor 5-HT6 ([3H] Lysergic acid diethylamide, HeLa membranes); details: for inhibition at 1 µM: read-out: 5-HT6 % inhibition
T5 construct: expressed in transfected cells; host or cells: HeLa
T5 sequence (P50406 whole entry): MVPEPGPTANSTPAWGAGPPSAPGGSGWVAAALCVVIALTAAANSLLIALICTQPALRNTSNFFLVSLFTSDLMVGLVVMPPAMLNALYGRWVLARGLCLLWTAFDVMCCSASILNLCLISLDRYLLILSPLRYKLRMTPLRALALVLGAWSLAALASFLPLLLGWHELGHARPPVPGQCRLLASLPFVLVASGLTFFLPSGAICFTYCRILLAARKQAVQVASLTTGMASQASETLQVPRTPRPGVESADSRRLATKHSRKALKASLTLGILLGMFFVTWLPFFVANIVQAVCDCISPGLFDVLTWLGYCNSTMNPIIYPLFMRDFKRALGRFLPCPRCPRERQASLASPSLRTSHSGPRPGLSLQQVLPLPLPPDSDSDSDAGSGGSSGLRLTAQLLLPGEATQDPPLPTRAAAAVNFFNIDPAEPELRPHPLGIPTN
Excerpt: Mol Pharmacol. 43:320-327, 1993]. […] Methiothepin is used as positive control.

imidazoline receptor I2 = test: Radioligand binding to imidazoline receptor I2 ([3H] Idazoxan, rat brain membranes); details: 10 µM ligand
human α2A receptor = biological target: T6, human α2A receptor (Homo sapiens, UniProt P08913); test: Radioligand binding to adrenergic receptor α2A ([3H] MK-912, Sf9 membranes)
T6 construct: expressed in transfected cells; host or cells: Sf9
T6 sequence (P08913 1-465): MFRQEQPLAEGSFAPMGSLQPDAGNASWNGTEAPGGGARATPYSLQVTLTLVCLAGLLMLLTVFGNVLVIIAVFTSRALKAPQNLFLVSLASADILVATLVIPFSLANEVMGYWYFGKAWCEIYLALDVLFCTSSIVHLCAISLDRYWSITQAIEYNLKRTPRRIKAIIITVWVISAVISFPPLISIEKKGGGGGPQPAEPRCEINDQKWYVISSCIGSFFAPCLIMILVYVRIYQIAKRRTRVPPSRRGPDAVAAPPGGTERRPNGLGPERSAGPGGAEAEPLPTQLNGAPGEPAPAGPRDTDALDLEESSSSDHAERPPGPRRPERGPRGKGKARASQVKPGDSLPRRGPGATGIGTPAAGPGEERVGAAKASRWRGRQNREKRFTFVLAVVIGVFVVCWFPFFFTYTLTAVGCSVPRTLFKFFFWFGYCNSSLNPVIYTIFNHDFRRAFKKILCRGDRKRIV
Excerpt: For this purpose sDNA of human α2A receptor is expressed in Sf9 cells, as described in [Uhlen S, Porter AC and Neubig RR. […] J Pharmacol ExpTher. […] J Pharmacol ExpTher. […] Yohimbine is used as positive control.

[3] = biological target: T7, recombinant human 5-HT2A receptor (Homo sapiens, UniProt P28223); test: Radioligand binding to serotonin receptor 5-HT2A ([3H] Ketanserin, CHO-K1 membranes)
T7 construct: expressed in transfected cells; host or cells: CHO-K1
T7 sequence (P28223 whole entry): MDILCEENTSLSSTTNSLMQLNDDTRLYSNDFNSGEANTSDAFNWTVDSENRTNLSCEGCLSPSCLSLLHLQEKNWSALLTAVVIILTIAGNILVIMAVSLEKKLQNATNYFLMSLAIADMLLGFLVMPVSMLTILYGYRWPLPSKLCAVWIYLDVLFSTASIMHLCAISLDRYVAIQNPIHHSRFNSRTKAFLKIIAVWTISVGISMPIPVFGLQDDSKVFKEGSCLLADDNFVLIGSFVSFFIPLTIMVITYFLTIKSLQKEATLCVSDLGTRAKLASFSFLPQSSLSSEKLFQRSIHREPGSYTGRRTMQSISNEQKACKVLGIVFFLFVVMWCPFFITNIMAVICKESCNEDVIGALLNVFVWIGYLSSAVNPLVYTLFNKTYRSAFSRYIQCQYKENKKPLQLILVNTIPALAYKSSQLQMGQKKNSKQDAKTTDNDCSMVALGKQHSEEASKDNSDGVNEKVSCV
Excerpt: 9-C. […] J Neurochem. […] Ketanserin is used as positive control.

[4] = biological target: T8, recombinant human 5-HT2B receptor (Homo sapiens, UniProt P41595); test: Radioligand binding to serotonin receptor 5-HT2B ([3H] Lysergic acid diethylamide, CHO-K1 membranes)
T8 construct: expressed in transfected cells; host or cells: CHO-K1
T8 sequence (P41595 whole entry): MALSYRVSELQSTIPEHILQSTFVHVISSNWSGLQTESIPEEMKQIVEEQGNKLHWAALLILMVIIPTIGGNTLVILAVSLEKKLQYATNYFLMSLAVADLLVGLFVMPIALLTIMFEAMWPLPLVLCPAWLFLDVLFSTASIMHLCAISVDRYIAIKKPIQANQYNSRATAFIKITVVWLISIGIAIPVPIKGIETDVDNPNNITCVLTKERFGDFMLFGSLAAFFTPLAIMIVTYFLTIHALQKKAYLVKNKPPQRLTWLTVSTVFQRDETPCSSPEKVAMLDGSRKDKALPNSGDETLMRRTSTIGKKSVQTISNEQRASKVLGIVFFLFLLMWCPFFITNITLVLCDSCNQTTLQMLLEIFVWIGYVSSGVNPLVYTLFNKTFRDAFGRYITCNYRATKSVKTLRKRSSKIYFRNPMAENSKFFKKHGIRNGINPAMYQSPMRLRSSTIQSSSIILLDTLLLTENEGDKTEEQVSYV

human H2 receptor = biological target: T9, human H2 receptor (Homo sapiens, UniProt P25021); test: Radioligand binding to histamine receptor H2 ([125I] Aminopotentidine, CHO-K1 membranes); details: read-out: Histamine receptors, % inhibition H2
T9 construct: expressed in transfected cells; host or cells: CHO-K1
T9 sequence (P25021 whole entry): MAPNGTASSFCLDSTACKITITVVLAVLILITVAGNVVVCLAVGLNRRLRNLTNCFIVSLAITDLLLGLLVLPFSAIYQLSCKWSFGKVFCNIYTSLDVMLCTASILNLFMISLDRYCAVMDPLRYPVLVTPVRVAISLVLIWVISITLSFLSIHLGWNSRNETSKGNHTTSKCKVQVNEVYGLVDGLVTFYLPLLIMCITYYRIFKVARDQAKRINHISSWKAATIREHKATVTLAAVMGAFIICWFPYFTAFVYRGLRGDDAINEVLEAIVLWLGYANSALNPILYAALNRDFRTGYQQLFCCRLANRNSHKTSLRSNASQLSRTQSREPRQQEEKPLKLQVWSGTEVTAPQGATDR
Excerpt: Proc Natl Acad Sci USA. 87(5): 1658-1662, 1990]. […] Proc Natl Acad Sci USA. 87(5): 1658-1662, 1990]. […] Tiotidine is used as positive control.

human H1 receptor = biological target: T10, human H1 receptor (Homo sapiens, UniProt P35367); test: Radioligand binding to histamine receptor H1 ([3H] Pyrilamine, CHO-K1 membranes); details: read-out: Histamine receptors, % inhibition H1, 10 µM ligand
T10 construct: expressed in transfected cells; host or cells: CHO-K1
T10 sequence (P35367 whole entry): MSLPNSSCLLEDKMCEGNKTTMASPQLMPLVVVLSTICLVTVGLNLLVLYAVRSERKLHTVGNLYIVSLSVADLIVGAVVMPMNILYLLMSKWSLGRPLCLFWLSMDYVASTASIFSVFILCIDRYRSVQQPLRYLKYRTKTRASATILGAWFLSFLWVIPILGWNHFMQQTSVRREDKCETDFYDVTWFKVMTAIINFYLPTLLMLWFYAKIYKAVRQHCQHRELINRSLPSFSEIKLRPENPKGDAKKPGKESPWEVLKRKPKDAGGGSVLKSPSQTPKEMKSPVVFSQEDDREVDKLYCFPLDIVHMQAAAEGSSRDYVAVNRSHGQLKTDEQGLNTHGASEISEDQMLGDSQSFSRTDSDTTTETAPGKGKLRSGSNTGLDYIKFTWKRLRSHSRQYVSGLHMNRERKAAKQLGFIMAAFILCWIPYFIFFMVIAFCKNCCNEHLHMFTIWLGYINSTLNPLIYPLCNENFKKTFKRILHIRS
Excerpt: Biochem Biophys Res Comm. 197(3): 1601-1608, 1993]. […] Biochem Biophys Res Comm. 197(3): 1601-1608, 1993].
Pyrilamine is used as positive control.

α-Adrenoceptor, % inhibition α1B (adrenergic receptor α1B)	α-Adrenoceptor, % inhibition α1A (adrenergic receptor α1A)	α-Adrenoceptor, % inhibition α1D (human α1D receptor)	SMILES	inhibition at 1 µM [1]	inhibition at 10 µM (human α1D receptor)	inhibition at 1 µM [2]	% inhibition (imidazoline receptor I2)	further results
			Cc1ccc2c(c1)c1c(n2CCc2cccnc2)CCCN(C)C1 [1.2.2(3-2)·2HCl]	90%	60%	79%	63%	inhibition at 10 µM (adrenergic receptor α1B; read-out: α-Adrenoceptor, % inhibition α1B): 75%; inhibition at 10 µM (adrenergic receptor α1A; read-out: α-Adrenoceptor, % inhibition α1A): 61%; inhibition at 10 µM (human α2A receptor; read-out: α-Adrenoceptor, % inhibition α2A): 71%
85%	80%	68%	Cc1ccc2c(c1)c1c(n2CCc2ccc(C)nc2)CCCN(C)C1 [1.2.2(4-1)]				80%	α-Adrenoceptor, % inhibition α2A (human α2A receptor; 10 µM ligand): 79%
89%	74%	68%	Cc1ccc2c(c1)c1c(n2CCc2ccncc2)CCCN(C)C1 [1.2.2(5-2)]				72%	
			Cc1ccc(S(=O)(=O)n2c3c(c4cc(C)ccc42)CN(C)CCC3)cc1 [1.8.1(3)·HCl]	90%	55%	93%	17%	nH ([3]; 5-HT2A): 1.01; inhibition at 1 µM ([3]; ligand concentration 1 µM): 100%; nH ([4]; 5-HT2B): 0.784; inhibition at 1 µM ([4]; read-out: 5-HT2B % inhibition): 101%; IC50 [2]: 535 nM; Ki [2]: 307 nM; nH ([2]; 5-HT6): 1.07; nH ([2]; last block of Table 11: receptor printed 5-HT6 in r18, cell blank in r19-r21): 0.665; inhibition at 10 µM (human H2 receptor): 82%; inhibition at 10 µM (human H1 receptor): 95%

— patent publication EP2236511A2, “LIGANDS OF ALPHA-ADRENOCEPTORS AND OF DOPAMINE, HISTAMINE, IMIDAZOLINE AND SEROTONIN RECEPTORS AND THE USE THEREOF” (priority 2007, dated 2009)
